Holding throughout (type): cell-based, human
The subject of experiment [1] is H292 cells. The experiment is described as follows: Immunoprecipitation of β-catenin–ubiquitin complex. As to conditions: H292, 50 nM, compared to cells treated with RT. On the procedure:
(§1) The DH_32-treated A549, H23, and H292 cells were collected using cold PBS and incubated on ice in a lysis buffer. This buffer consisted of 50 mM 4-(2-hydroxyethyl)-1-piperazineethanesulfonic acid at pH 7.5, 150 mM NaCl, 5 mM EDTA, 1% Triton X-100, 1 mM phenylmethylsulfonyl fluoride, and 2 μg/mL pepstatin A (catalog no: 9803, Cell Signaling), along with complete protease inhibitor cocktail tablets from the EASYpack (Roche, catalog no: 04693116001). The incubation took place for 40 min on ice, followed by centrifugation at 12,000× g at 4 °C for 15 min.
(§2) Subsequently, immunoprecipitation was carried out using the Dynabeads™ Protein G Immunoprecipitation Kit from Thermo Fisher Scientific Inc. (Waltham, MA, USA). The magnetic beads were prepared and added to 100 μL of Ab binding and washing buffer that contained β-catenin (2 μL) for 15 min on rotation at room temperature. The complex of magnetic beads and antibodies was re-suspended in a protein lysis buffer and left to incubate at 4 °C overnight, facilitating the binding of the β-catenin antigen with the magnetic bead–antibody complex. The magnetic bead–Ab–Ag complex was washed three times using 200 μL of washing buffer. The magnetic bead–antibody–antigen complex was resuspended in the lysis buffer (30 μL), and the 6x sample buffer (5 μL) was denatured by heating at 95 °C for 5 min. The antigen–antibody complex was loaded onto a 12% sodium dodecyl sulfate polyacrylamide gel electrophoresis (SDS-PAGE). Following gel separation, the proteins were transferred onto a nitrocellulose membrane with a pore size of 0.45 μm. After transfer, the membrane was placed in a mixture containing 5% nonfat dry milk in TBST (composed of 25 mm Tris-HCl, pH 7.4, 125 mm NaCl, and 0.05% Tween 20) for a duration of 1 h 30 min. Following this, the proteins were exposed to primary antibodies (Cell Signaling), specifically ubiquitin mouse mAb (cat no: 14049), and left to incubate overnight at 4 °C. […] Protein intensity was analyzed by using ImageJ software (Image J 1.52a, Rasband, W., National Institutes of Health, USA). […]

Experiment [2] relates to A549 cells. The experiment is described as follows: Immunoprecipitation of β-catenin–ubiquitin complex. As to conditions: A549, 50 nM, compared to cells treated with RT. Here is the method:
as §1, §2

Experiment [3] concerns H23 cells. As to the kind of experiment: Immunoprecipitation of β-catenin–ubiquitin complex. The conditions noted are these: H23, 50 nM, compared to cells treated with RT. On the procedure:
as §1, §2

In experiment [4] the test system is H292 cells. As to the kind of experiment: Western blot of apoptosis-related proteins (cleaved PARP, Bcl-2, Bax). Here is the method: (§3) The protein expression levels in NSCLC cells were assessed through Western blot analysis. A549, H23, and H292 cells were seeded at a density of 4 × 10^5 cells per well in 6-well cell culture plates. These cells were subjected to treatments with DH_32 at concentrations of 0, 25, 50, and 100 nM for 24 h at 37 °C.
(§4) Following treatment, the cells were collected using cold PBS and incubated on ice with a lysis buffer. The lysis buffer contained 50 mM 4-(2-hydroxyethyl)-1-piperazineethanesulfonic acid (pH 7.5), 150 mM NaCl, 5 mM EDTA, 1% Triton X-100, 1 mM phenylmethylsufonyl fluoride, and 2 μg/mL pepstatin A (cat no: 9803, Cell Signaling), along with complete protease inhibitor cocktail tablets provided in EASYpack (Roche, cat no: 04693116001). The incubation occurred for 40 min on ice, followed by centrifugation at 12,000× g at 4 °C for 15 min. Cell lysates were collected, and the protein content was quantified using the bicinchoninic acid (BCA) protein kit from Thermo-Fisher Scientific, Rockford, IL, USA. The sample was denatured by heating at 95 °C for 5 min with a sample buffer. The protein was loaded onto a 10% sodium dodecyl sulfate polyacrylamide gel electrophoresis (SDS-PAGE). Following gel separation, the proteins were transferred onto a nitrocellulose membrane with a pore size of 0.45 μm. The membranes were incubated with 5% nonfat dry milk in TBST (25 mm Tris-HCl, pH 7.4, 125 mm NaCl, and 0.05% Tween 20) for 1 h 30 min. Following this, the membrane was exposed to primary antibodies (Cell Signaling) including rabbit PARP, BcL2, Bax, CD133, CD44, OCT4, ALDH1A1, and β-catenin, and incubated at 4 °C overnight. Rabbit β-actin served as the control for loading normalization. The primary antibodies were diluted to 1:1000 in 5% w/v BSA in TBST. The membranes were washed with TBST and were then exposed to horseradish-peroxidase (HRP)-conjugated isotype-specific secondary antibodies, as well as anti-rabbit and anti-mouse IgG (1:2000 in 5% w/v skim milk in TBST), for 1 h at RT. Membranes were washed again with TBST. A chemiluminescent substrate (Supersignal West Pico; Pierce, Rockford, IL, USA) was applied to detect complex reactivity, and the signal intensity was quantified through densitometry. Protein intensity was analyzed by using ImageJ software (Image J 1.52a, Rasband, W., National Institutes of Health, Bethesda, MD, USA). RT acted as the positive control for this experiment.
(In general: In western blotting, separated proteins are transferred to a membrane and probed.)

For experiment [5], the system named is A549 cells. The experiment is described as above. On the procedure:
as §3, §4

The test system of experiment [6] is H23 cells. The experiment is described as above. On the procedure:
as §3, §4

Experiment [7] concerns β-catenin in A549, H23, and H292 cells. As to the kind of experiment: Western blot of β-catenin. The conditions noted are these: 0–100 nM, 24 h. Here is the method: as §3
(§5) Following treatment, the cells were collected using cold PBS and incubated on ice with a lysis buffer. The lysis buffer contained 50 mM 4-(2-hydroxyethyl)-1-piperazineethanesulfonic acid (pH 7.5), 150 mM NaCl, 5 mM EDTA, 1% Triton X-100, 1 mM phenylmethylsufonyl fluoride, and 2 μg/mL pepstatin A (cat no: 9803, Cell Signaling), along with complete protease inhibitor cocktail tablets provided in EASYpack (Roche, cat no: 04693116001). The incubation occurred for 40 min on ice, followed by centrifugation at 12,000× g at 4 °C for 15 min. Cell lysates were collected, and the protein content was quantified using the bicinchoninic acid (BCA) protein kit from Thermo-Fisher Scientific, Rockford, IL, USA. […] A chemiluminescent substrate (Supersignal West Pico; Pierce, Rockford, IL, USA) was applied to detect complex reactivity, and the signal intensity was quantified through densitometry. Protein intensity was analyzed by using ImageJ software (Image J 1.52a, Rasband, W., National Institutes of Health, Bethesda, MD, USA). […]

The subject of experiment [8] is A549, H23, and H292 cells. The experiment is described as follows: Western blot of CSC markers. The conditions noted are these: 25, 50, and 100 nM, 24 h. On the procedure: as §3, §5

For the molecule `COC1=C(C)C(=O)C2=C(C1=O)[C@@H]1CN(Cc3ccc4ccccc4c3)[C@@H](C#N)[C@H](C2)N1C` [DH_32, (1R,4R,5S)-9-methoxy-8,11-dimethyl-3-(naphthalen-2-ylmethyl)-7,10-dioxo-1,2,3,4,5,6,7,10-octahydro-1,5-epiminobenzo[d]azocine-4-carbonitrile], the figures for the “increase in level of β-catenin–ubiquitin complex” value in the experiment on H292 cells [1], in the experiment with A549 cells [2] and in the experiment with H23 cells [3] were 3.5 fold, 2.5 fold and “two-fold increase”, respectively. In addition, the “anti-apoptotic Bcl-2 protein level” value is listed as “significant reduction in a dose-dependent manner” in the experiment on H292 cells [4] (H292, 0–100 nM, 24 h); “significant reduction in a dose-dependent manner” in the experiment with A549 cells [5] (A549, 0–100 nM, 24 h); “significant reduction in a dose-dependent manner” in the experiment on H23 cells [6] (H23, 0–100 nM, 24 h). Further, the “cleaved PARP level” value is “substantial increase” in the experiment on H292 cells [4] (H292, 50 nM, 24 h); “six-fold increase” in the experiment on A549 cells [5] (A549, 50 nM, 24 h, compared to the RT treatment); “substantial increase” in the experiment with H23 cells [6] (H23, 50 nM, 24 h). Moreover, the “pro-apoptotic protein Bax level” value in the experiment with H292 cells [4] (H292, 24 h) was “remained unaltered”; with A549 cells [5] (A549, 24 h, compared to the parent compound), “two-fold increase”; with H23 cells [6] (H23, 24 h), “remained unaltered”. Besides, the “β-catenin protein level by Western blot” value in experiment [7] is listed as “significant decrease in the β-catenin protein level”. The “CSC markers CD133, CD44, OCT4, and ALDH1A1 by western blot” value in experiment [8] was “dramatic decrease”.

Source of the values: publication PMC10744608, “Simplified Synthesis of Renieramycin T Derivatives to Target Cancer Stem Cells via β-Catenin Proteasomal Degradation in Human Lung Cancer” (Marine Drugs, 2023).
